The source of these data is article PMC5587642, “A Novel Benzocoumarin-Stilbene Hybrid as a DNA ligase I inhibitor with in vitro and in vivo anti-tumor activity in breast cancer models” (Scientific Reports, 2017).

Assay [1] has as its target T1, hLigI (Homo sapiens, UniProt P18858).
T1 construct: made in house
In words: Circular dichroism study. It counts as binding. The settings on record: 5 and 10 µM. As to the method:
We followed previously described protocol for CD studies[40] with small modifications. Briefly, emission spectra of hLigI (100 pmol) was recorded at a wavelength of 190-250 nm in the presence (5 and 10 µM) or absence of compound 19 by spectropolarimeter. The raw values in mdeg were obtained and used for mean residual ellipticity [θ] calculation. The graph was generated by the plotting the value of mean residue ellipticity in deg cm^2 dmol^−1 with respect to wavelength.

Assay [2] concerns the target T2, DNA ligation (hLigI) in MDA-MB-231 cell lysate (Homo sapiens, UniProt P18858).
T2 construct: endogenous in cells; host or cells: MDA-MB-231
Nature of the assay: Ex-vivo ligation assay with lysate of treated cells. It counts as cell-based. The settings on record: MDA-MB-231, treated 48 h. Here is the method: Cells (MDA-MB-231) were seeded in 6 well plates and treated either with vehicle control (DMSO) or with different concentrations (6 and 12 µM) of compound 19 for 48 h. After the treatment cell lysate was prepared and western blotting was performed as described previously. Briefly, the cells were lysed by very brief sonication. Sonicated samples were centrifuged and the supernatant was collected and used for ligation assay and western blotting.
The MDA-MB-231 and 4T1 cells were treated with different concentrations of compound 19 for 48h. Cell lysate were prepared as described previously ^6 for the ligation assay. Here we used same DNA substrate which was used in FEN1 flap cleavage assay so that we can check the activity of hLigI and FEN1 proteins in compound 19 treated samples. The reactions were performed as described previously ^6. In the Supplementary Fig. 74 cleaved product remain (25 mer) same. This cleaved product occurs after the cleavage of 25+6 mer oligo by FEN1 protein, since the cleaved product (25 mer) remains same in treated as well as in control samples we can conclude that the compound 19 unable to inhibit the FEN1 protein inside the cells. The cleaved product (25 mer) make a double strand nicked substrate for hLig I protein with 27 mer and 52 mer oligo used in the reaction. hLigI protein gives rise to ligated (52 mer oligo) product after the completion of reaction. […]

The target of assay [3] is T1, hLigI. Nature of the assay: In-vitro fluorescence quenching assay. It counts as binding. As to conditions: 5 and 10 µM, excitation 280 nm. As to the method:
In-vitro fluorescence quenching assay was performed as described previously[16] with brief modifications. At the fixed excitation wavelength 280 nm emission spectra of hLigI (100 pmol) was recorded from 300 to 400 nm in the presence (5 and 10 µM) or absence of compound 19 by spectrofluorometer. Compound 19 was used at 5 and 10 µM concentration with hLigI (100 pmol). Spectra was acquired for buffer alone (50 mM Tris-HCl, pH 7.5, 50 mM NaCl, 1 mM ATP, 10 mM MgCl2, 2 mM DTT and 5% glycerol), buffer with vehicle control, buffer with inhibitor alone and for buffer with protein and inhibitor.

Assay [4] deals with MDA-MB-231 cells. Nature of the assay: Annexin V-FITC/PI apoptosis flow cytometry. It counts as cell-based, human. As to the method: Apoptotic cell death of MDA-MB-231 cells upon treatment with compound 19 was measured using a commercially available Annexin V-FITC apoptosis detection kit according to the manufacturer’s protocol (BD Biosciences, San Diego, CA). Briefly, cells were treated with different concentrations (0, 6 and 12 µM) of compound 19 for 24 and 48 h. The cells were then harvested, washed with cold PBS and stained with Annexin V-FITC and propidium iodide (PI) in binding buffer at room temperature in the dark. The stained cells were analyzed by fluorescence-activated cell sorting using a FACS-Calibur instrument (BD Biosciences, San Diego, CA) equipped with CellQuest 3.3 Software.
Background: Flow cytometry measures light scatter and fluorescence of single cells or particles in a stream.

The target of assay [5] is T3, FEN1 protein (Homo sapiens, UniProt P39748).
T3 construct: His-tag (C); made in house; host or cells: E. coli BL21DE3
T3 sequence (P39748 whole entry): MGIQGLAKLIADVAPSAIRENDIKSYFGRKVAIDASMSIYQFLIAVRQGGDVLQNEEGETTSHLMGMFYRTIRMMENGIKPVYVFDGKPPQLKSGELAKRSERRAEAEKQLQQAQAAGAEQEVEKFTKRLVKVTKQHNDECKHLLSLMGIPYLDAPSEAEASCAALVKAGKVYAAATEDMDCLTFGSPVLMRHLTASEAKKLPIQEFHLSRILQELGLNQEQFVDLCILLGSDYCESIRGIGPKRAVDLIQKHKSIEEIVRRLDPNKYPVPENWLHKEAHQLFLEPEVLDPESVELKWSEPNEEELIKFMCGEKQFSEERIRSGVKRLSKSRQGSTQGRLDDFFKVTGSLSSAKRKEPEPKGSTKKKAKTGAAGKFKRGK
Nature of the assay: Flap cleavage assay. It counts as biochemical. As to conditions: compound 19 at 5, 10, 20 µM. Here is the method: Purification of FEN 1: Full length FEN1 DNA template was taken from pShuttle-FEN1hWT, a gift from Sheila Stewart (Addgene plasmid#35027) is subcloned into a pET41a expression vector containing C-terminal His-tag. pET41FEN1His freshly transformed into expression host BL21DE3 E. coli cells (Novagene), single colonies picked and inoculated in 5ml of LB media containing 50μg/ml of Kanamycin, grown for 3 to 4 hrs and further subcultured in 100 ml of LB medium containing 50μg/ml of Kanamycin and grown at 37°C till the OD reached to 0.6-0.7, induced at 0.5 mM IPTG at 16°C for 18hrs. Pellets were collected and lysed in 20 mM tris 150 mM NaCl (Lysis buffer) containing 1mM PMSF and 1mM benzamidine hydrochloride and purified by Ni-NTA affinity chromatography.
Flap cleavage assay: All oligos were purchased from Integrated DNA Technologies and dissolved in nuclase free water at concentration of 100μM. FAM-labeled 25+6 Flap-mer (5’-[…]-3’*6FAM)) was annealed with 52- mer (5’-[…]-3’) and 27-mer (5’-[…]-3’) to form a complementary double strand flap cleavage substrate. […] The cleaved and uncleaved DNA molecules are separated on 15% Urea gel and bands were detected by Image Quant LAS 4010 (GE Healthcare).

The subject of assay [6] is MDA-MB-231 cells. Nature of the assay: MTT cell viability assay. Format: cell-based, human. As to conditions: for IC50: MTT, 48 h. As to the method: (§1) Cell viability assay was performed as described previously. Briefly, cells were seeded in 96 well plates and treated with different concentrations of compound 19 for 48 h. After drug treatment, MTT reagent was added in each well of the plate and cell viability was quantified by measuring the absorbance at 590 nm.

The subject of assay [7] is MCF-10A (Normal breast epithelial cells). Nature of the assay: MTT cell viability assay. Format: cell-based, human. Here is the method:
as §1
A general note: Tetrazolium dyes change colour on reduction, which living cells bring about.

T1 sequence (P18858 whole entry): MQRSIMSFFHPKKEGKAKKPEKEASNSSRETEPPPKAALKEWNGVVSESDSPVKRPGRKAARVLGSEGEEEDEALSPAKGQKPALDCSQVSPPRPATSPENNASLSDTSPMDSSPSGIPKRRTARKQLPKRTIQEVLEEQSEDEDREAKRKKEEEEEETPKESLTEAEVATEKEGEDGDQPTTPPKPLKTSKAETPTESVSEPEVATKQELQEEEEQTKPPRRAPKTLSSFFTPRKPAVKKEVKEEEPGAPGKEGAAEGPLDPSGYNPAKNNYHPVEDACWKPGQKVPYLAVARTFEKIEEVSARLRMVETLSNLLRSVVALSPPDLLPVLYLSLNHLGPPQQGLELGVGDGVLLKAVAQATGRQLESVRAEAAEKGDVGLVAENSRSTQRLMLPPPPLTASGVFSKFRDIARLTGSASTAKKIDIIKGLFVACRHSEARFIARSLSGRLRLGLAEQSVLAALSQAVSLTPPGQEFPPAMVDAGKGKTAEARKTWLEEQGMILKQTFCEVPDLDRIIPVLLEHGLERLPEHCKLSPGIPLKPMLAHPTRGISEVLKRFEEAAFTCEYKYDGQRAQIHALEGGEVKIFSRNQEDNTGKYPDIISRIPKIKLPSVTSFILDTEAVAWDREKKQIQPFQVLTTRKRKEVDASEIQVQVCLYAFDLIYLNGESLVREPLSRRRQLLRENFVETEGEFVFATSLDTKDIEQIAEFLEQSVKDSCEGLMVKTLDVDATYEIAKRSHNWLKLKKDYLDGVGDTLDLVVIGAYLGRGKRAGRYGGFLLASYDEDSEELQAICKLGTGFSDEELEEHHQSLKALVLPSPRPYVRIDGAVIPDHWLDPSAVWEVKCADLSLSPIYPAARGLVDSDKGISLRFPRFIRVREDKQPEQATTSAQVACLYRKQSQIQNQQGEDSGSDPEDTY
T2 sequence (P18858 whole entry): as above

A word on the IC50: it is the midpoint of a concentration-inhibition curve. The low end stands for greater potency in that assay, the high end for weaker potency in that assay. In the case of `COc1cc(/C=C/c2cc(=O)oc3c2ccc2ccccc23)cc(OC)c1` [Compound 19, (E)-4-(3,5-dimethoxystyryl)-2H-benzo[h]chromen-2-one], in assay [1], the “Conformational change of hLigI (CD)” value is “promoted conformational changes in protein”. The “DNA ligation capacity of lysate of treated cells” value in assay [2] is “reduced capacity for DNA ligation”. The “Change of hLigI fluorescence spectra (protein binding)” value in assay [3] is reported as “fluorescence spectra of the full length hLigI protein changed”. The Apoptosis in assay [4] (6 µM, 24 h) is listed as 10.78 ± 1.21%; in assay [4] (6 µM, 48 h), 18.68 ± 4.86%; in assay [4] (12 µM, 24 h), 16.37 ± 1.18%; in assay [4] (12 µM, 48 h), 36.17 ± 3.43%. For the same molecule, in assay [5], the “Inhibition of FEN1 flap cleavage activity” value is “not able to inhibit”. In addition, the “% Inhibition of cell viability at 10 µM, MDA-MB-231 (Breast)” value in assay [6] (10 µM) came to 51.35%. Moreover, in assay [6] (Homo sapiens, MDA-MB-231, 48 h, 10 μM, % inhibition, read-out: Antiproliferative activity at 10μM in MDA-MB-231), the inhibition at 10 µM is above 50%. Also, the IC50 in assay [6] (Homo sapiens, MDA-MB-231, 48 h) turned out to be 12.5 ± 2.8 µM; in assay [6] it was 12 µM. Besides, the “Comparative cell viability versus parent compounds” value in assay [6] (MDA-MB-231, versus Neo-tanshinlactone and resveratrol) was “more active as compared to parent compounds”. The “% Inhibition of cell viability at 10 µM, MCF-10A (Normal breast epithelial cells)” value in assay [7] came to 50.83%.
